# Laboratory results taken from US12157729B2, “Solid state forms of Belumosudil and Belumosudil salts” (TEVA PHARMACEUTICALS INTERNATIONAL GMBH, priority 2020, dated 2024).
# What was measured:
# [1] = Hygroscopicity of the crystalline form; format: physicochemical; conditions: crystalline solid form
# [2] = Polymorphic stability at up to 100% relative humidity at room temperature; format: physicochemical
Substance,hygroscopicity [1],time over which the form is polymorphically stable [2]
Belumosudil Besylate [Form BS1],non-hygroscopic,at least 7 days
Belumosudil Mesylate [Form M1],non-hygroscopic,at least 7 days
Belumosudil Tosylate [Form T1],non-hygroscopic,at least 7 days
